Entries after “also recorded” stand apart in the source; their conditions may differ.

The text below walks through data of patent US8765679B2, “Extract and peptides derived from Oryza sativa Japonica Group and uses thereof” (Yissum Research Development Company of The Hebrew …, priority 2010, dated 2014).

In one assay the test system is EAE mice. The assay can be described thus: Experimental autoimmune encephalitis (EAE) induced with MOG peptide 35-55, neurological score. It counts as in vivo, Female C57BL/6 mice. As to conditions: for neurological score / neurological symptoms: oral 100 μg/kg, FIG. 2C, FIG. 3.
Assay [1] concerns mouse peritoneal macrophages. The experiment in a line: Oxidative burst of PMA-activated peritoneal macrophages (luminescence). Format: cell-based. Conditions: for oxidative burst in activated macrophages (luminescence): added 1 minute after PMA, FIG. 6. As to the method:
Mice were injected i.p. with thioglycolate. Peritoneal macrophages were obtained and incubated with horse-reddish peroxidase and luminol. The reaction started by the addition of phorbol myristate acetate (PMA) and 1 minute later RA1 was added. Luminescence measurement was started after PMA addition. Each cycle represents 74 seconds.
Mice were injected ip with 1.5 ml thioglycolate (29.8 g/l). Peritoneal macrophages were obtained and incubated (2.5×10^6 cells/ml) in HBSS with 2 μl of 1 mM CoCl2, 2 μl 100 mM Na2SeO3, 2 μl of 10 mM luminal. The reaction started by the addition of 5 μl of 100 μM phorbol myristate acetate (PMA) (final concentration of 2.5 μM) and one minute later RA1 was added. Luminescence measurement was started after PMA addition. Each cycle represents 74 seconds.

Assay [2] deals with carrageenan-induced hind paw swelling. The assay can be described thus: Carrageenan-induced hind paw swelling. Format: in vivo. As to conditions: 30 minutes prior to carrageenan, FIG. 5. How it is done: RA1 or saline were injected 30 minutes prior to carrageenan injection into the subplantar area. The diameter of the subplantar area was measured every 60 minutes by a micrometer. […] The effect of RA1 was tested in an animal model for inflammation. Inflammation induced by carrageenan, is acute, well-researched, and highly reproducible. Cardinal signs of inflammation edema, hyperalgesia, and erythema develop immediately following subcutaneous injection, resulting from action of proinflammatory agents bradykinin, histamine, tachykinins, complement and reactive oxygen, and nitrogen species. The inflammatory response is usually quantified by increase in paw size (edema). RA1 or its vehicle, i.e., saline, was injected ip 30 minutes prior to carrageenan treatment. Carrageenan (50 μl of 3 mg/ml) was injected into the subplantar area of both limbs of each animal. The diameter of the subplantar area was measured every 60 minutes by a micrometer. The degree of swelling was assessed by the difference between thicknesses measured after and prior to carrageenan injection (zero time).
A general note: Carrageenan injected into the paw causes an acute inflammation.

A further assay has as its system Murine naïve CD4 cells. The assay can be described thus: Cytokine profile of RA1-treated CD4 cells (ELISA of supernatants). Format: cell-based. As to conditions: anti-CD3/anti-CD28/IL2-activated CD4 cells, supernatants at 72 h. As to the method: Murine lymph nodes and/or spleens were mashed, harvested and single cell suspension was passed through a […] cell strainer and washed. Murine naïve CD4 cells were MACS separated using Miltenyi CD4 beads (Miltenyi Biotec GmbH, Bergisch Gladbach, ermany) according to manufacture instructions. Isolated T cells were seeded and activated with anti-CD3 […] and anti-CD28 […] (BD Biosciences, San Jose, Calif., USA) in the presence of IL2 (10 U/ml), (PeproTech Inc, Rocky Hill, N.J., USA). For cytokine production and RA1 determination supernatants were collected for ELISA. Cytokine analysis was performed in supernatants at 72 h using commercial kits: IFNγ, IL12 and IL4 (Perpotech), IL-17 (R&D systems) and IL10 (BD Biosciences).
Background: In an ELISA, binding on a coated surface is turned into a signal by an enzyme label.

The test system of a further assay is experimental model of MS. Conditions: intravenous and oral administrations; cited from earlier work.
Setting [3] is: 3 times a week, starting 7 days after MOG immunization.

As for “AEMIDLAAKMLSEG (ORYZA SATIVA JAPONICA) [RA4]”, the “neurological score / neurological symptoms” value with EAE mice (setting [3]) is reported as “reduction of the neurological score”.
On the same count and under the same terms, the entry for “AEMIDLAAKMLSEGR (ORYZA SATIVA JAPONICA) [RA3]” is “reduction of the neurological score”.
As for “AEMIDLAAKMLSEGRG (ORYZA SATIVA JAPONICA) [RA1, 16-mer peptide, amino acid residues 217-232 of Oryza sativa Japonica Group]”, the “oxidative burst in activated macrophages (luminescence)” value in assay [1] (0.1 ng/ml) is “less effective”; in assay [1] (1.0 ng/ml), “less effective”; in assay [1] (10 ng/ml) it was “strongly inhibited”. In assay [1] (summary statement referring to Example 6), the hydroxyl radical scavenger result is given as “highly effective”. Also, the neurological score result in the assay on EAE mice (i.p. 0.1 μg/kg, three times a week, starting seven days after MOG immunization, FIG. 4) is recorded as “an increased effect”; with EAE mice (i.v., once on the day of MOG immunization, FIG. 2A) it was “significantly improved”. In addition, the “neurological score / neurological symptoms” value in the assay with EAE mice (setting [3]) is recorded as “beneficial in reducing the neurological symptoms; also recorded: an increased effect”. Further, the “swelling induced after the carrageenan injection” value in assay [2] (one dose 1.0 μg/kg ip) and in assay [2] (one dose 10 μg/kg ip) was “significantly reduced” in each case. Moreover, the IFNγ production result with Murine naïve CD4 cells (FIG. 10A) is given as “reduction”. For the same sequence, in the assay with Murine naïve CD4 cells (FIG. 10B), the IL17 production entry is on record as “reduction”. Moreover, the IL4 production entry with Murine naïve CD4 cells (FIG. 10C) was “elevation”. Besides, the IL10 production result in the assay with Murine naïve CD4 cells (FIG. 10D) was “elevation”.
In the case of “EMIDLAAKMLSEGRG (ORYZA SATIVA JAPONICA) [RA2]”, the neurological score result in the assay with EAE mice (i.p. 1 μg/kg, 3 times a week, starting 7 days after MOG immunization, FIG. 2B, FIG. 4) was “reduction of the neurological score”.
Take “KGHYAERVG (listed as Homo sapiens) [IIIM1, 9-mer peptide derived from human histone H2A]”: in the assay on experimental model of MS, the “neurological symptoms in the diseased mice” value was “significantly ameliorated the neurological symptoms”.
